Test results: publication PMC12226733, “Evolution of iGluR ligand specificity, polyamine regulation, and ion selectivity inferred from a placozoan epsilon receptor” (Communications Biology, 2025)
Where a chain is given by its changes, count along the chain named. Where “and” joins values, the source holds several entries; their conditions need not be identical. Equal values may be shown once. Read-outs that look alike come from different tables or passages of the source.

Columns and labels:
GluE1αA wildtype = type: cell-based, Trichoplax adhaerens; details: […]; for normalized conductance (G-V, Figure 5g), Avg: Na vs Na; for I-V current, Na vs Na, Avg of recordings: Figure 5b
GluE1αA S642R = type: cell-based, Trichoplax adhaerens; details: […]; for normalized conductance (G-V, Figure 5g), Avg: Na vs Na; for I-V current, Na vs Na, Avg of recordings: Figure 5b
GluE1αA S642N = target: T1, GluE1αA S642N (Trichoplax adhaerens, UniProt B3SAW0, S167N)
T1 sequence (B3SAW0 1-341 S167N): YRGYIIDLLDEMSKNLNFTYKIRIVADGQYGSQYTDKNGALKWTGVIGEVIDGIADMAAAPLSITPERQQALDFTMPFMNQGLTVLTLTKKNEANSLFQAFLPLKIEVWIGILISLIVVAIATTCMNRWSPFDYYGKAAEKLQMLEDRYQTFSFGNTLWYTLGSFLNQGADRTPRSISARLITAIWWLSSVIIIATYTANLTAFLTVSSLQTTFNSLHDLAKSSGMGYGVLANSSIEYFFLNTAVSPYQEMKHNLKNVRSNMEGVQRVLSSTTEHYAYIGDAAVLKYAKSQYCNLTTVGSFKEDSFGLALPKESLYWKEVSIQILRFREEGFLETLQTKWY
Excerpt: (§1) To further elucidate the nature of internal polyamine block in GluE1αA, we performed outside-out membrane patch clamp experiments in wildtype and mutant channels. […] Current-voltage (I-V) relationships were converted to conductance-voltage (G-V) plots and fit with a single permeant blocker model to estimate both the dissociation constant for Spm at 0 mV (Kd(0mV)) and the voltage dependency of block, as previously described[46],[47].
(§2) HEK-293T/17 cells (ATCC) were maintained in MEM supplemented with GlutaMAX and 10% fetal bovine serum (FBS) at 37 °C and 5% CO2. […] Transient transfections were carried out 48 h post-plating using the calcium phosphate precipitation method. After 6–8 hours, cells were washed twice with PBS and maintained in fresh medium. Cells transfected with mammalian GluA2 cDNA (plasmid vector described above) were returned to an incubator at 37 °C for 24–48 hours and cells transfected with Epsilon GluE1αA were incubated at 28 °C for 48–72 hours. In cells co-transfected with TARP-γ2, 30 μM NBQX was included in the medium to minimize AMPAR/auxiliary-induced cytotoxicity. All constructs were co-transfected with a plasmid encoding enhanced green fluorescent protein (eGFP) to identify transfected cells. Electrophysiology responses were recorded from outside-out patches excised from transfected cells. Recording pipettes were composed of borosilicate glass (3 to 6 megaohm, King Precision Glass) coated with dental wax to reduce electrical noise. All recordings were performed using Axopatch 200B amplifier (Molecular Devices, LLC). Current records were filtered at 5 or 10 kHz and sampled at 25–50 kHz. Series resistance (3 to 12 megaohms) was compensated by 95%. Recordings were performed at a range of holding potentials from −100 mV to 100 mV to study polyamine block. Data was acquired using pClamp9 software (Molecular Devices, LLC). All experiments were performed at room temperature. All chemicals were purchased from Sigma-Aldrich, unless otherwise indicated. External solution contained (in mM): 150 NaCl, 5 HEPES, 0.1 CaCl2, 0.1 MgCl, and […], pH 7.3–7.4. […] The osmotic pressure of all solutions was adjusted to 295 to 300 mOsm with sucrose. […] Stocks were thawed on the day of the experiment and used to prepared agonist-containing external solutions. Raw data for all electrophysiology experiments are provided in Supplementary Data 3. Current-voltage (I-V) relationships were fit using Origin 7 (OriginLab) using a ninth order polynomial function to estimate the reversal potential (Vrev).
(§3) Agonist-evoked membrane conductance (G) was calculated using the following equation: G=I/(V−Vrev)
(§4) Conductance-voltage (G-V) relationships were fit using Origin 7 (OriginLab) with the single permeant blocker model as done previously[46]: G=Gmax/1+[Spm]/Kd Where Gmax is the maximal conductance, [Spm] is the internal Spm concentration, and Kd is the dissociation constant.
(§5) Kd is defined as: Kd=koff+kperm/kon=sumofexitrates/bindingrate
(§6) And redefined as: Kd=g*exp(V/h)+L*exp(V/k) Where h and k are voltage dependencies of g and L, respectively, and at 0 mV: g=koff/konandL=kperm/kon

GluE1αA S642Q = target: T2, GluE1αA S642Q (Trichoplax adhaerens, UniProt B3SAW0, S167Q)
T2 sequence (B3SAW0 1-341 S167Q): T1 sequence (B3SAW0 1-341 S167N) with N167Q
Excerpt: as §1, §2, §3, §4, §5, §6

GluE1αA wt = GluE1αA wt (Trichoplax adhaerens, UniProt B3SAW0); details: for Normalized current (Inorm) GluE1αA wild type: single recordings and AVG
GluE1αA wt, sequence (B3SAW0 1-341): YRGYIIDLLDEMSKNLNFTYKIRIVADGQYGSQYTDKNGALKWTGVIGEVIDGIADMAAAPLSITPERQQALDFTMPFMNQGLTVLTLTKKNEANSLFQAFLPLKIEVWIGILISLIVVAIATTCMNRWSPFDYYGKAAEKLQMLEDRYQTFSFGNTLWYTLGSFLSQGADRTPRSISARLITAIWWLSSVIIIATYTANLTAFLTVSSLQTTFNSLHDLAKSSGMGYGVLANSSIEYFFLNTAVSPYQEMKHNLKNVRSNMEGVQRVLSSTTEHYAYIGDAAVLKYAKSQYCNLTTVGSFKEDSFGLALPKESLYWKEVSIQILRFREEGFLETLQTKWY
Excerpt: as §1, §2, §3, §4, §5, §6

SMILES: [Na+] [Na]
- normalized conductance (G-V, Figure 5g), Avg (GluE1αA wildtype; Vm 0.00): 0.54
- normalized conductance (G-V, Figure 5g), Avg (GluE1αA wildtype; Vm 20.00): 0.50
- normalized conductance (G-V, Figure 5g), Avg (GluE1αA wildtype; Vm 40.00): 0.58
- normalized conductance (G-V, Figure 5g), Avg (GluE1αA wildtype; Vm 60.00): 0.65
- normalized conductance (G-V, Figure 5g), Avg (GluE1αA wildtype; Vm 80.00): 0.67
- normalized conductance (G-V, Figure 5g), Avg (GluE1αA wildtype; Vm -20.00): 0.70
- normalized conductance (G-V, Figure 5g), Avg (GluE1αA wildtype; Vm -40.00): 0.83
- normalized conductance (G-V, Figure 5g), Avg (GluE1αA wildtype; Vm -60.00): 0.93
- normalized conductance (G-V, Figure 5g), Avg (GluE1αA wildtype; Vm -80.00): 1.00
- I-V current, Na vs Na, Avg of recordings (GluE1αA wildtype; Vm 0.00): -0.0053
- I-V current, Na vs Na, Avg of recordings (GluE1αA wildtype; Vm 20.00): 0.11
- I-V current, Na vs Na, Avg of recordings (GluE1αA wildtype; Vm 40.00): 0.23
- I-V current, Na vs Na, Avg of recordings (GluE1αA wildtype; Vm 60.00): 0.38
- I-V current, Na vs Na, Avg of recordings (GluE1αA wildtype; Vm 80.00): 0.54
- I-V current, Na vs Na, Avg of recordings (GluE1αA wildtype; Vm -20.00): -0.15
- I-V current, Na vs Na, Avg of recordings (GluE1αA wildtype; Vm -40.00): -0.34
- I-V current, Na vs Na, Avg of recordings (GluE1αA wildtype; Vm -60.00): -0.54
- I-V current, Na vs Na, Avg of recordings (GluE1αA wildtype; Vm -80.00): -0.77
- normalized conductance (G-V, Figure 5g), Avg (GluE1αA S642R; Vm 0.00): 0.18
- normalized conductance (G-V, Figure 5g), Avg (GluE1αA S642R; Vm 20.00): 0.18
- normalized conductance (G-V, Figure 5g), Avg (GluE1αA S642R; Vm 40.00): 0.22
- normalized conductance (G-V, Figure 5g), Avg (GluE1αA S642R; Vm 60.00): 0.29
- normalized conductance (G-V, Figure 5g), Avg (GluE1αA S642R; Vm 80.00): 0.33
- normalized conductance (G-V, Figure 5g), Avg (GluE1αA S642R; Vm -20.00): 0.24
- normalized conductance (G-V, Figure 5g), Avg (GluE1αA S642R; Vm -40.00): 0.36
- normalized conductance (G-V, Figure 5g), Avg (GluE1αA S642R; Vm -60.00): 0.62
- normalized conductance (G-V, Figure 5g), Avg (GluE1αA S642R; Vm -80.00): 1.00
- I-V current, Na vs Na, Avg of recordings (GluE1αA S642R; Vm 0.00): 0.00344
- I-V current, Na vs Na, Avg of recordings (GluE1αA S642R; Vm 20.00): 0.06
- I-V current, Na vs Na, Avg of recordings (GluE1αA S642R; Vm 40.00): 0.13
- I-V current, Na vs Na, Avg of recordings (GluE1αA S642R; Vm 60.00): 0.22
- I-V current, Na vs Na, Avg of recordings (GluE1αA S642R; Vm 80.00): 0.33
- I-V current, Na vs Na, Avg of recordings (GluE1αA S642R; Vm -20.00): -0.07
- I-V current, Na vs Na, Avg of recordings (GluE1αA S642R; Vm -40.00): -0.16
- I-V current, Na vs Na, Avg of recordings (GluE1αA S642R; Vm -60.00): -0.32
- I-V current, Na vs Na, Avg of recordings (GluE1αA S642R; Vm -80.00): -0.59

SMILES: NCCCNCCCCNCCCN [spermine]
- Normalized conductance (Gnorm) (GluE1αA S642N; 0 mV, single recordings c1-c7, AVG c8): 0.27 and 0.16 and 0.22
- Normalized conductance (Gnorm) (GluE1αA S642N; -80 mV, single recordings c1-c7, AVG c8): 0.79
- Normalized current (Inorm) (GluE1αA S642N; -100 mV, single recordings c1-c7, AVG c8): -1.00
- h, voltage dependency of block onset (GluE1αA S642N; GluE1αA S642N): −26.4 ± 1.3 mV
- k, voltage dependency of block relief (GluE1αA S642N; GluE1αA S642N): 34.9 ± 3.7 mV
- Normalized current (Inorm) (GluE1αA S642Q; -100 mV, single recordings c1-c10, AVG c11): -1.00
- h, voltage dependency of block onset (GluE1αA S642Q; GluE1αA S642Q): −15.3 ± 0.7 mV
- k, voltage dependency of block relief (GluE1αA S642Q; GluE1αA S642Q): 28.3 ± 2.1 mV
- Normalized current (Inorm) GluE1αA wild type (GluE1αA wt; 50 mV): 0.16 and 0.13 and 0.0847
- Normalized current (Inorm) GluE1αA wild type (GluE1αA wt; -100 mV): -1.00
- h, voltage dependency of block onset (GluE1αA wt; GluE1αA wt): −18.5 ± 0.6 mV
- k, voltage dependency of block relief (GluE1αA wt; GluE1αA wt): 36.5 ± 4.7 mV
